Assay results reported in PubChem BioAssay AID328 (DTP/NCI, 2004).
Values joined by “and” are separate entries in the source; they are usually repeats but may differ in a detail not shown here. Equal values may be shown once. Toxic doses and inconclusive results are not listed. Rule for the calls: active = survival T/C of 150% or more; inactive = T/C below 125% in these data.

How the values were obtained:
[1] = test system: BDF1 mice, P388 leukemia ip; experiment: NCI In Vivo Anticancer Drug Screen. Data for tumor model P388 Leukemia (intraperitoneal) in B6D2F1 (BDF1) mice; details: endpoint: mean survival time, schedule: Q01DX010 (ip), vehicle: carboxymethylcellulose (CMC), higher = longer survival
Outline: (§1)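 T/C = treated-group survival ÷ vehicle-control survival; tumour transplanted into mice before dosing.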

[2] = test system: BDF1 mice, P388 leukemia ip, median survival T/C; experiment: as above; details: endpoint: median survival time, higher = longer survival
Outline: as §1

Measured: T/C

CC(C)(O)CCC(=O)C(C)(O)C1C(O)CC2(C)C3CC=C4C(CC(O)C(=O)C4(C)C)C3(C)C(=O)CC12C (stereo not drawn)
inactive: [1]; dose: 1.0 mg/kg/injection 97 % of control | [1]; dose: 2.0 mg/kg/injection 86 % of control | [2]; dose: 1.0 mg/kg/injection, schedule: Q01DX010 (ip), vehicle: carboxymethylcellulose (CMC) 121 % of control | [2]; dose: 2.0 mg/kg/injection, schedule: Q01DX010 (ip), vehicle: carboxymethylcellulose (CMC) 121 % of control | [2]; dose: 4.0 mg/kg/injection, schedule: Q01DX010 (ip), vehicle: carboxymethylcellulose (CMC) 121 % of control

CC(C)=CC(=O)C1C(=O)c2ccccc2C1=O
inactive: [1]; dose: 25.0 mg/kg/injection 93 % of control | [1]; dose: 50.0 mg/kg/injection 101 % of control | [1]; dose: 100.0 mg/kg/injection 101 % of control | [1]; dose: 200.0 mg/kg/injection 96 % of control

CN(C)CC/C=C1\c2ccccc2C(C)(C)c2ccc(Cl)cc21
inactive: [2]; dose: 6.0 mg/kg/injection, schedule: Q04DX003 (ip), vehicle: saline with Tween-80 95 % of control | [2]; dose: 6.25 mg/kg/injection, schedule: Q01DX009 (ip), vehicle: Klucel (hydroxypropylcellulose) (HPC) 100 % of control | [2]; dose: 11.0 mg/kg/injection, schedule: Q04DX003 (ip), vehicle: saline with Tween-80 104 % of control | [2]; dose: 12.5 mg/kg/injection, schedule: Q01DX009 (ip), vehicle: Klucel (hydroxypropylcellulose) (HPC) 111 % of control | [2]; dose: 16.5 mg/kg/injection, schedule: Q01DX009 (ip), vehicle: Klucel (hydroxypropylcellulose) (HPC) 90 % of control and 100 % of control | [2]; dose: 22.0 mg/kg/injection, schedule: Q04DX003 (ip), vehicle: saline with Tween-80 104 % of control | [2]; dose: 25.0 mg/kg/injection, schedule: Q01DX009 (ip), vehicle: Klucel (hydroxypropylcellulose) (HPC) 88 % of control and 100 % of control | [2]; dose: 33.0 mg/kg/injection, schedule: Q04DX003 (ip), vehicle: saline with Tween-80 100 % of control and 104 % of control | [2]; dose: 37.5 mg/kg/injection, schedule: Q01DX009 (ip), vehicle: Klucel (hydroxypropylcellulose) (HPC) 90 % of control and 92 % of control | [2]; dose: 50.0 mg/kg/injection, schedule: Q04DX003 (ip), vehicle: saline with Tween-80 110 % of control and 112 % of control | [2]; dose: 55.0 mg/kg/injection, schedule: Q01DX009 (ip), vehicle: Klucel (hydroxypropylcellulose) (HPC) 95 % of control | [2]; dose: 75.0 mg/kg/injection, schedule: Q04DX003 (ip), vehicle: saline with Tween-80 115 % of control and 120 % of control | [2]; dose: 85.0 mg/kg/injection, schedule: Q01DX009 (ip), vehicle: Klucel (hydroxypropylcellulose) (HPC) 87 % of control | [2]; dose: 125.0 mg/kg/injection, schedule: Q01DX009 (ip), vehicle: Klucel (hydroxypropylcellulose) (HPC) 95 % of control
